In brackets after ≈: the same amount, converted by molar mass. Read-outs that look alike come from different tables or passages of the source.
Legend:
[1] = target: T1, M3 receptor (carbachol-induced detrusor contraction) (Rattus norvegicus, UniProt P08483); assay: Carbachol-induced bladder strip (detrusor) contraction, ex vivo organ bath; format: cell-based, spontaneously hypertensive rats (SHRs); conditions: for remaining activity at 100 µg/mL: 100 μg/ml; for inhibition at 100 µg/mL: read-out: inhibition rate at 100 μg/ml; for IC50 / IC10 value: carbachol (10 μM)-induced detrusor contraction, Mean ± SEM, n = 3
T1 construct: the whole bladder was immediately isolated to prepare detrusor strips in Krebs’ solution; from tissue; host or cells: bladder detrusor strips / bladder sections of SHR
Procedure: SHRs were sacrificed with carbon dioxide, and the whole bladder was immediately isolated to prepare detrusor strips in Krebs’ solution. Then, the strips were placed in a PanLab organ bath (Harvard Apparatus, Holliston, Massachusetts, United States) full of bubbling Krebs’ solution at 37°C. After stimulation with high-potassium solution, the strips were washed with Krebs’ solution three times. When the strips were incubated in Krebs’ solution until the tension was set at about 1.5 g, 0.1% DMSO was added for a 10-min incubation as a control, and then the muscle strip was stimulated to shrink by adding muscarinic agonist carbachol (10 μM), which is used for determinization of M3 receptor function in the bladder strip ([Liang and Leung, 2012]). Between two stimulations, the strips were washed out and balanced for 15 min. The contraction force of the bladder strip was recorded. After the experiment, detrusor strips were collected, dried, and weighed for data normalization. Data were recorded and analyzed using LabChart software (version 8.0).
Detrusor strips were isolated from SHRs and placed in the organ bath as mentioned previously, and then inhibitory activities of different fractions at 100 μg/ml were tested under carbachol (10 μM)-stimulated detrusor contraction.

[2] = Urine metabolites after oral Gegen water extract, quantified by UPLC-MS/MS; format: in vivo, spontaneously hypertensive rats (SHRs); conditions: spontaneously hypertensive rat (SHR), 3-week treatment, Mean ± SEM; for concentration at 2 h: 2 h after last dose of Gegen water extract 300 mg/kg p.o., n = 8, read-out: Content in urine, 2 h; for concentration at 4 h: 4 h after last dose of Gegen water extract 300 mg/kg p.o., n = 8, read-out: Content in urine, 4 h; for concentration at 6 h: 6 h after last dose of Gegen water extract 300 mg/kg p.o., n = 8, read-out: Content in urine, 6 h; for concentration at 8 h: 8 h after last dose of Gegen water extract 300 mg/kg p.o., n = 8, read-out: Content in urine, 8 h
Procedure: Urine samples were collected into ice-cold 15-ml Falcon tubes every 2 h and up to a total of 8 h, and the tubes were cooled by ice to prevent bacteria proliferation and water evaporation during collection. […] The gradient profile was set as follows: 10-40% B from 0 to 11 min; and 40-80% B from 11 to 15 min. The parameters for mass spectrometry were as follows: capillary, 2.5 kV for negative mode; sampling cone, 34 V; source offset, 80 V; cone gas flow, 150 L/h; desolvation gas flow, 650 L/h; and desolvation temperature, 350°C. Samples were kept at 4°C in the sample manager, and the column was maintained at 40°C. […] The precision and accuracy of the quantitation were satisfied according to FDA Bioanalytical Method Validation Guidance for Industry. Total ion chromatograms including retention times and MRM masses are shown in Supplementary Figure S2.

[3] = cited from earlier work
[4] = target: T2, recombinant human M3 receptor (Homo sapiens, UniProt P20309); assay: Thermal shift assay with recombinant human M3 receptor protein; format: binding; conditions: for binding to the human M3 receptor protein (verdict in words): thermal shift; for Tm value of the human M3 receptor protein: compound at 100 μg/ml, control (1% DMSO) 64.17 ± 0.37°C, n = 3
T2 construct: Full-length recombinant human M3 muscarinic acetylcholine receptor membrane preparation was provided by Millipore Co; purchased Millipore Co. (Merck KGaA, Darmstadt, Germany)
Procedure: A thermal shift assay was performed to measure the binding of ligands to a recombinant human M3 receptor as modified from the previous study ([Huynh and Partch, 2015]). Briefly, after optimization of protein and dye concentrations, the M3 receptor protein (0.025 mg/ml) was incubated with different concentrations of tested compounds (0–100 μg/ml in 1% DMSO) in an 18 μl volume of ice-cold PBS for 2 h. Then, SYPRO Orange protein stain (2 μl; 8x as the final concentration diluted from original 5000x with PBS) was added, and the melt curve was detected using the Applied Biosystems QuantStudio5 real-time PCR system under the following conditions: ramp speed, standard; excitation wavelength at 470 nm (Reporter: FAM), and emission wavelength at 586 nm (Quencher: TAMRA) with no passive reference; an initial 2-min hold at 25°C (ramp rate, 1.6°C/s), ramping up in increments of 0.05°C/s to a final temperature of 99°C. Melt temperatures (Tm) were calculated using Protein Thermal Shift software v.1.4 (Applied Biosystems, Thermo, United States). The change in melt temperature (ΔTm) was equal to the Tm of control (1% DMSO) subtracted from the Tm of the tested compound. ΔTm higher than 2°C was considered a positive interaction between the ligand and receptor protein ([Huynh and Partch, 2015]).

[5] = target: BSA (Bos taurus, UniProt P02769); assay: Thermal shift control in PBS containing BSA and glycerin; format: binding; conditions: 100 μg/ml; no M3 receptor protein; read-out: ΔTm in PBS solution containing BSA and glycerin
[6] = target: T1, M3 receptor (carbachol-induced detrusor contraction); assay: Carbachol-induced bladder strip (detrusor) contraction, ex vivo organ bath; format: cell-based, spontaneously hypertensive rats (SHRs); conditions: read-out: inhibition at 12.5 μg/ml
[7] = pure compounds at 100 μg/ml, carbachol 10 μM

T1 sequence (P08483 whole entry): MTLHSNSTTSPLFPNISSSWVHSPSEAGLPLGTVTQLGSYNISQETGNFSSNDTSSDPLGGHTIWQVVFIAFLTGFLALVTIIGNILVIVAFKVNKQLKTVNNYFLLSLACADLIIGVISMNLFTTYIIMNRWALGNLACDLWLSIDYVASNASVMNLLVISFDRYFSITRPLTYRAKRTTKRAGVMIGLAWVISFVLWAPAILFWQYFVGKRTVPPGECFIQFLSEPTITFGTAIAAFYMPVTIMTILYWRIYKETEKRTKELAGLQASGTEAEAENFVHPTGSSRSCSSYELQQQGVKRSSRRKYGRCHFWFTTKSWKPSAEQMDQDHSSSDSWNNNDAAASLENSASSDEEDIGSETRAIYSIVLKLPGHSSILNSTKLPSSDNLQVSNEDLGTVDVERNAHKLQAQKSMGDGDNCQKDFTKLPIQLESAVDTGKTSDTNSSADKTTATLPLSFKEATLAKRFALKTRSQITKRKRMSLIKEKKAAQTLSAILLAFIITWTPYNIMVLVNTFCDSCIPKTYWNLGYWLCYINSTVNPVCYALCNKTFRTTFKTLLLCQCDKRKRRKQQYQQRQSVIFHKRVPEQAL
T2 sequence (P20309 whole entry): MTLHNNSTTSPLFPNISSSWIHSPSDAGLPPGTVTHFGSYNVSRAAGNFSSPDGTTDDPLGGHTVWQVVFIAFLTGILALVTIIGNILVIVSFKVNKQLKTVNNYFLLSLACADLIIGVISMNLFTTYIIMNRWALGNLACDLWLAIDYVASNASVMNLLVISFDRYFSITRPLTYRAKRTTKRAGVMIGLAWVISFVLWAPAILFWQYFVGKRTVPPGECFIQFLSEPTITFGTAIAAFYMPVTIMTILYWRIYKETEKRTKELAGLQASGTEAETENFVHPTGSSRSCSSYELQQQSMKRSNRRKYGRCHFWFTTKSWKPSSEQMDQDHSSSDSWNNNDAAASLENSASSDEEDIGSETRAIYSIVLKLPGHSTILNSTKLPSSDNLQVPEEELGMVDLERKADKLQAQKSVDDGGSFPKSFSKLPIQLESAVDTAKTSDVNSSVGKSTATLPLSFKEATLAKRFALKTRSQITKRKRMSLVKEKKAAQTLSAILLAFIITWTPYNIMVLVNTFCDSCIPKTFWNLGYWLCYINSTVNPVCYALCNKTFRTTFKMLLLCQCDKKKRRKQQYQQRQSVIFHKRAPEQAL
Sequence of BSA (P02769 25-607): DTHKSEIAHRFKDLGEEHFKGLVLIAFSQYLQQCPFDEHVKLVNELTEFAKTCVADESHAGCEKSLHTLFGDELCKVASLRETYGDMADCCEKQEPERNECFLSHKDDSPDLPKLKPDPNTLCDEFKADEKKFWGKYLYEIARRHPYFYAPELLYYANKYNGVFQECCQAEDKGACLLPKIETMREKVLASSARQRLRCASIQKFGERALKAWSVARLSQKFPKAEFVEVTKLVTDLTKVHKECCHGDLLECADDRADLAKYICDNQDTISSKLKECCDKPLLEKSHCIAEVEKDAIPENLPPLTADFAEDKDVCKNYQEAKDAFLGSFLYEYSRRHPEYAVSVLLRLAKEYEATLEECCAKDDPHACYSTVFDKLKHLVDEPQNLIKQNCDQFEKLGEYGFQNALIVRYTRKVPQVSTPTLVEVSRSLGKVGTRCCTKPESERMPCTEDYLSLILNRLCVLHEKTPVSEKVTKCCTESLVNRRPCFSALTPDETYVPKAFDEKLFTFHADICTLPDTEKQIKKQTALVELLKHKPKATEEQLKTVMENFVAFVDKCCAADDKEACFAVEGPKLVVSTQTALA

## O=c1c(-c2ccc(O)c(O)c2)coc2c([C@@H]3O[C@H](CO)[C@@H](O)[C@H](O)[C@H]3O)c(O)ccc12 [3′-Hydroxypuerarin, 3′-hydroxypuerarin]
[1]; carbachol 10 μM
  remaining activity at 100 µg/mL: 82.3 ± 1.8%
[1]; [7]
  inhibition at 100 µg/mL: 17.8 ± 1.75%

## O=c1c(-c2ccc(O)cc2)coc2c([C@@H]3O[C@H](CO[C@@H]4OC[C@](O)(CO)[C@H]4O)[C@@H](O)[C@H](O)[C@H]3O)c(O)ccc12 [Puerarin apioside, puerarin apioside]
[1]; carbachol 10 μM
  remaining activity at 100 µg/mL: 89.3 ± 9.2%
[1]; [7]
  inhibition at 100 µg/mL: 10.7 ± 9.24%

## O=c1c(-c2ccc(O)cc2)coc2cc(O)cc(O)c12 [Genistein, Genistein (5-hydroxyl daidzein)]
[2]; in vivo
  concentration at 2 h: 517 ± 138 ng/mL
  concentration at 4 h: 1410 ± 1000 ng/mL
  concentration at 6 h: 327 ± 98 ng/mL
  concentration at 8 h: 342 ± 35 ng/mL

## O=c1c(-c2ccc(O)cc2)coc2cc(O[C@@H]3O[C@H](CO)[C@@H](O)[C@H](O)[C@H]3O)cc(O)c12 [Genistin, genistin (genistein-7-O-glucoside)]
[1]
  IC50: > 231 µM

## O=c1c(-c2ccc(O)cc2)coc2c([C@@H]3O[C@H](CO)[C@@H](O)[C@H](O)[C@H]3O)c(O)ccc12 [Puerarin, puerarin (daidzein-8-C-glucoside)]
[3]; after oral administration of Gegen water extract, ref Wei et al., 2020
  plasma AUC: 15.1 µg·h/mL
[4]; 100 μg/ml
  binding to the human M3 receptor protein (verdict in words): very weak binding
[4]
  Tm value of the human M3 receptor protein: 64.92 ± 0.03 °C
[1]
  IC10 value: 2.90 ± 2.11 µg/mL (≈ 6.96 µM)
  inhibition at 100 µg/mL: 33.8 ± 3.05%
[2]; urine, oral
  concentration at 2 h: 6380 ± 897 ng/mL
  concentration at 4 h: 10300 ± 2480 ng/mL
  concentration at 6 h: 3310 ± 325 ng/mL
  concentration at 8 h: 2210 ± 164 ng/mL

## O=c1c(-c2ccc(O)cc2)coc2cc(O)ccc12 [Daidzein, daidzein]
[3]; rat, in vivo, po
  plasma AUC: 4·4 μg·h/mL
[4]; 100 μg/ml, against 1% DMSO, ΔTm higher than 2°C = positive interaction
  ΔTm at 100 µg/mL: 2.12 °C
[4]; 100 μg/ml
  binding to the human M3 receptor protein (verdict in words): positively bound
[4]; 3.125–100 μg/ml, at 65.3°C, read-out: EC50 of concentration-dependent increase of Tm (converted)
  EC50: 62.1 µM
[4]
  Tm value of the human M3 receptor protein: 66.29 ± 0.38 °C
[5]
  ΔTm at 100 µg/mL: ~0.58 °C
[6]
  inhibition at 12.5 µg/mL: 15%
[1]
  IC10 value: 8.15 ± 1.85 µg/mL (≈ 32.1 µM)
  IC50: 158 µM
[2]; urine, oral
  concentration at 2 h: 4400 ± 1000 ng/mL
  concentration at 4 h: 15900 ± 9300 ng/mL
  concentration at 6 h: 8130 ± 2660 ng/mL
  concentration at 8 h: 14400 ± 5140 ng/mL

## COc1ccc(-c2coc3cc(O)cc(O)c3c2=O)cc1 [Biochanin A, Biochanin A (genistein 4′-methyl ether)]
[1]
  IC10 value: 34.94 ± 6.75 µg/mL (≈ 123 µM)
  IC50: 201 µM
[2]; urine, oral
  concentration at 2 h: 26 ± 7 ng/mL
  concentration at 4 h: 85 ± 57 ng/mL
  concentration at 6 h: 30 ± 14 ng/mL
  concentration at 8 h: 28 ± 5 ng/mL

Reference: article PMC9576955, “Daidzein is the in vivo active compound of Puerariae Lobatae Radix water extract for muscarinic receptor-3 inhibition against overactive bladder” (Frontiers in Pharmacology, 2022)
